The results in this text go back to patent US20250387438A1, “USE OF […] SP. OR COMPOSITION COMPRISING SAME IN PREVENTION OR TREATMENT OF TUMORS, AND DRUG COMPRISING SAME” (Moon (Guangzhou) Biotech Co., Ltd., priority 2022, published 2025).

The test system of series [1] is Christensenella sp. MNH04863. The series can be described thus: Antibiotic susceptibility testing by disk diffusion method. It counts as cell-based. The note with it: for Inhibition Zone Diameter: against Christensenella sp. MNH04863. An excerpt:
The disk diffusion method was used to conduct the antibiotic susceptibility testing of Christensenella sp. MNH04863. Christensenella sp.
For orientation: Agar diffusion results depend on both activity and mobility in agar.

The test system of series [2] is KPC mouse pancreatic cancer cells. Particulars: in vivo.
Series [3] shares this test system. The series can be described thus: Pancreatic cancer mouse homologous tumor model, combination with gemcitabine.

Regarding `CC1(C)S[C@@H]2[C@H](NC(=O)[C@H](N)c3ccccc3)C(=O)N2[C@H]1C(=O)O` [Ampicillin (AMP), Ampicillin], in series [1], the “Susceptibility of Christensenella sp. MNH04863 to the antibiotic” value (“Susceptibility” for short) was “resistance” and the “Inhibition Zone Diameter” value worked out at 0 mm.
For the molecule `CO/N=C(\C(=O)N[C@@H]1C(=O)N2C(C(=O)O)=C(CSc3nc(=O)c(=O)[nH]n3C)CS[C@H]12)c1csc(N)n1` [Ceftriaxone (CTR), Ceftriaxone], in series [1], the “Susceptibility” value was “sensitive” and the “Inhibition Zone Diameter” value is recorded as 37.32 mm.
The like results for `O=C(N[C@H](CO)[C@H](O)c1ccc([N+](=O)[O-])cc1)C(Cl)Cl` [Chloramphenicol (C), Chloramphenicol] were, in that order, “sensitive” and 38.88 mm.
For `O=C(O)c1cn(C2CC2)c2cc(N3CCNCC3)c(F)cc2c1=O` [Ciprofloxacin (CIP), Ciprofloxacin], in that order: “resistance” and 0 mm.
In the case of `CC[C@H]1OC(=O)[C@H](C)[C@@H](O[C@H]2C[C@@](C)(OC)[C@@H](O)[C@H](C)O2)[C@H](C)[C@@H](O[C@@H]2O[C@H](C)C[C@H](N(C)C)[C@H]2O)[C@](C)(O)C[C@@H](C)C(=O)[C@H](C)[C@@H](O)[C@]1(C)O` [Erythromycin (E), Erythromycin], in series [1], the “Susceptibility” value is listed as “sensitive” and the “Inhibition Zone Diameter” value amounted to 16.82 mm.
Consider `Nc1ccn([C@@H]2O[C@H](CO)[C@@H](O)C2(F)F)c(=O)n1` [Gemcitabine], for which the “Number of Euthanized mice” value in series [2] (C57BL/6J) turned out to be 2. Moreover, the “Average Weight Before Dissection” value in series [2] worked out at 21.13 g. Moreover, the “Average Dissected Tumor Weight” value in series [3] (experimental endpoint) came out at 0.68 g. The “Experimental Endpoint TGI” value in series [3] (vs control) was found to be 40.0%.
`CCC[C@@H]1C[C@@H](C(=O)N[C@@H]([C@H]2O[C@H](SC)[C@H](O)[C@@H](O)[C@H]2O)[C@@H](C)O)N(C)C1` [Lincomycin (MY), Lincomycin]: in series [1], the “Susceptibility” value is “sensitive” and the “Inhibition Zone Diameter” value is given as 29.86 mm.
`CN(C)[C@@H]1C(O)=C(C(N)=O)C(=O)[C@@]2(O)C(O)=C3C(=O)c4c(O)cccc4[C@@](C)(O)[C@H]3C[C@@H]12` [Tetracycline (TET), Tetracycline]: the “Inhibition Zone Diameter” value in series [1] turned out to be 46.11 mm.
In the case of “Compound Sulfamethoxazole [Compound Sulfamethoxazole (SXT)]”, in series [1], the “Susceptibility” value was “resistance” and the “Inhibition Zone Diameter” value is listed as 0 mm.
For Gentamycin [Gentamycin (GEN)], in that order: “resistance” and 0 mm.
For Penicillin [Penicillin (PEN)], in that order: “sensitive” and 43.06 mm.
